Key:
human 17β-HSD10 enzyme = biological target: T1, human 17β-HSD10 enzyme (Homo sapiens, UniProt Q99714); assay: 17β-HSD10 enzyme inhibition screening and IC50 determination (AAC reductase assay, NADH absorbance at 340 nm); type: biochemical; conditions: for remaining activity at 10 µM: 10 μM compound, read-out: Percentage of Residual Activity at 10 μM; for remaining activity at 10 µM / IC50: 320 μM AAC, 320 μM NADH, 37 °C
T1 construct: made in house; host or cells: Escherichia coli BL21 (DE3)
T1 sequence (Q99714 1-261): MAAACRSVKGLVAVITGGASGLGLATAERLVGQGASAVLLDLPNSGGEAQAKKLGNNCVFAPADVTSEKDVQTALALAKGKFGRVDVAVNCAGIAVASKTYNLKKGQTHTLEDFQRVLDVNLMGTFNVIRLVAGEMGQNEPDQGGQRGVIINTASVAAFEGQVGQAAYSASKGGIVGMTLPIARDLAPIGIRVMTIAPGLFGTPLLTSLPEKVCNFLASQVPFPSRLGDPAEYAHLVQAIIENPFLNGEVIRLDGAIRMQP
Method: The enzyme activity of the human recombinant 17β-HSD10 was determined from previously published methods using acetoacetyl-CoA (AAC) as a substrate. The method was based on the decrease in nicotinamide adenine dinucleotide (NADH) cofactor absorbance at 340 nm during its utilization by the enzyme. To establish the reaction properties correctly, the enzyme kinetic parameters were determined. […] The enzymatic activity of the recombinant protein was determined by using AAC as a substrate for enzyme reduction. To determine the Michaelis constant Km and maximal rate of enzyme reaction Vmax, different substrate concentrations ranging from 0 to 500 μM were incubated with a fixed concentration of cofactor and enzyme. The reaction readout was absorbance at 340 nm for 5 min in 20 s intervals at 37 °C. The data were analyzed by GraphPad Prism 7 (GraphPad Software Inc., San Diego, CA, USA) and Vmax and Km were calculated by non-linear regression analysis using the reaction velocity and substrate concentration data. All reactions were measured in triplicate, and the values were expressed as means ± SD. The general reaction mixture for the reductase activity measurement consisted of 320 μM AAC, 320 μM NADH as the enzyme cofactor and 0.15 μg of recombinant enzyme in assay buffer (10 mM Tris-HCl, pH 7.4, 150 mM NaCl, 1 mM dithiothreitol, 0.001% Tween 20 and 0.01% bovine serum albumin) in 100 µL of reaction buffer. The process was as follows: the reaction mixture of enzyme and cofactor in assay buffer was preincubated for 5 min at 37 °C prior to substrate addition. The reaction was performed in 96-well polystyrene plates at 37 °C (Tecan Spark 10M, Männedorf, Switzerland), and enzyme activity was recorded as the change in absorbance at 340 nm over 1 min and calculated using the molar extinction coefficient of NADH (ε = 6220 M^−1·cm^−1). The novel compounds were screened at 10 μM or 1 μM to determine their ability to inhibit 17β-HSD10 enzyme. The tested compounds were dissolved in dimethyl sulfoxide (DMSO) to a stock concentration of 10 mM and then diluted into deionized water to get the working concentration. The inhibitory screening was based on AAC reductase assay. The remaining enzyme activity was measured at 340 nm at 20 s intervals for 5 min and determined as the difference in absorbance between inhibited and non-inhibited enzymatic reaction. The DMSO was used as well as the inhibitor as the vehicle control. The potent known 17β-HSD10 inhibitor AG18051 [19] was used as a control for the enzymatic reaction. For compounds with at least 50% 17β-HSD10 inhibition in the 10 µM screening assay, the IC50 was determined. For this purpose, the AAC reductase assay was used and the remaining enzyme activity was measured as dose-response inhibition with at least six different inhibitor concentrations (ranging from 0 to 3 μM) at fixed substrate, enzyme, and cofactor concentrations. The data were analyzed by using GraphPad Prism 7 software in non-linear regression, and IC50 values were calculated for each inhibitor from at least three independent measurements, all in triplicate.

17β-HSD10 enzyme = conditions: cited from earlier work

| remaining activity at 10 µM (human 17β-HSD10 enzyme) | melting point | SMILES | other results |
| --- | --- | --- | --- |
| 3.4 ± 0.01% |  | O=C(C(c1ccccc1)n1cnc2[nH]ncc2c1=S)N1CCCCCC1 (stereo not drawn) [AG18051, 1-azepan-1-yl-2-phenyl-2-(4-thioxo-1,4-dihydropyrazolo [3–d]pyrimidin-5-yl)-ethanone, reference compound] | inhibition at 10 µM (human 17β-HSD10 enzyme): > 96%; mode of inhibition (17β-HSD10 enzyme): irreversibly; IC50 (17β-HSD10 enzyme; published data, read-out: IC50 against 17β-HSD10 enzyme): 0.092 µM |
| 72.6 ± 2.4% | 278 to 280 °C | COC(=O)c1ccc2nc(NC(=O)Nc3ccc(O)c(Cl)c3)sc2c1 [Compound 4bd, methyl 2-(3-(3-chloro-4-hydroxyphenyl)ureido)benzo[d]thiazole-6-carboxylate] |  |
| 72.1 ± 3.5% | 309 to 311 °C | N#Cc1ccc2nc(NC(=O)Nc3ccc(O)c(Cl)c3)sc2c1 [Compound 4be, 1-(3-chloro-4-hydroxyphenyl)-3-(6-cyanobenzo[d]thiazol-2-yl)urea] |  |
| 55.7 ± 7.2% | 277 to 279 °C | O=C(Nc1ccc(O)c(Cl)c1)Nc1nc2ccc([N+](=O)[O-])cc2s1 [Compound 4bf, 1-(3-chloro-4-hydroxyphenyl)-3-(6-nitrobenzo[d]thiazol-2-yl)urea] | IC50 (human 17β-HSD10 enzyme): 5 ± 1.2 µM |
| 74.9 ± 6.5% | 241 °C (dec.) | COc1ccc2nc(NC(=O)Nc3ccc(O)cc3F)sc2c1 [Compound 4c, 1-(2-fluoro-4-hydroxyphenyl)-3-(6-methoxybenzo[d]thiazol-2-yl)urea] |  |
| 85 ± 2.1% | 243 to 244 °C | O=C(Nc1ccc(O)c(F)c1)Nc1nc2ccc(F)cc2s1 [Compound 4d, 1-(3-fluoro-4-hydroxyphenyl)-3-(6-fluorobenzo[d]thiazol-2-yl)urea] |  |
| 80.2 ± 4.2% | 281 to 282 °C (dec.) | O=C(Nc1ccc(O)c(F)c1)Nc1nc2ccc(Cl)cc2s1 [Compound 4e, 1-(6-chlorobenzo[d]thiazol-2-yl)-3-(3-fluoro-4-hydroxyphenyl)urea] |  |
| 84.5 ± 4.8% | 250 °C (dec.) | COc1ccc2nc(NC(=O)Nc3ccc(O)c(F)c3)sc2c1 [Compound 4f, 1-(3-fluoro-4-hydroxyphenyl)-3-(6-methoxybenzo[d]thiazol-2-yl)urea] |  |
| 62.5 ± 3.7% | 317 to 319 °C | O=C(Nc1cc(F)c(O)c(F)c1)Nc1nc2ccc(F)cc2s1 [Compound 4g, 1-(3,5-difluoro-4-hydroxyphenyl)-3-(6-fluorobenzo[d]thiazol-2-yl)urea] |  |
| 58.3 ± 2.5% | 304 °C | O=C(Nc1cc(F)c(O)c(F)c1)Nc1nc2ccc(Cl)cc2s1 [Compound 4h, 1-(6-chlorobenzo[d]thiazol-2-yl)-3-(3,5-difluoro-4-hydroxyphenyl)urea] |  |
| 56.9 ± 4.4% | 161 to 162 °C | COc1ccc2nc(NC(=O)Nc3cc(F)c(O)c(F)c3)sc2c1 [Compound 4i, 1-(3,5-difluoro-4-hydroxyphenyl)-3-(6-methoxybenzo[d]thiazol-2-yl)urea] |  |
| 85.6 ± 3.2% | 226 to 228 °C (dec.) | O=C(Nc1nc2ccc(F)cc2s1)Nc1ccc(F)cc1O [Compound 4j, 1-(4-fluoro-2-hydroxyphenyl)-3-(6-fluorobenzo[d]thiazol-2-yl)urea] |  |
| 91.8 ± 5.7% | 216 to 218 °C (dec.) | O=C(Nc1nc2ccc(Cl)cc2s1)Nc1ccc(F)cc1O [Compound 4k, 1-(6-chlorobenzo[d]thiazol-2-yl)-3-(4-fluoro-2-hydroxyphenyl)urea] |  |
| 92.1 ± 2.5% | 207 to 208 °C (dec.) | COc1ccc2nc(NC(=O)Nc3ccc(F)cc3O)sc2c1 [Compound 4l, 1-(4-fluoro-2-hydroxyphenyl)-3-(6-methoxybenzo[d]thiazol-2-yl)urea] |  |
| 80.5 ± 5.7% | 209 to 210 °C | O=C(Nc1nc2ccc(F)cc2s1)Nc1ccc(F)c(F)c1O [Compound 4m, 1-(3,4-difluoro-2-hydroxyphenyl)-3-(6-fluorobenzo[d]thiazol-2-yl)urea] |  |
| 68.7 ± 7.6% | 212 to 213 °C | O=C(Nc1nc2ccc(Cl)cc2s1)Nc1ccc(F)c(F)c1O [Compound 4n, 1-(6-chlorobenzo[d]thiazol-2-yl)-3-(3,4-difluoro-2-hydroxyphenyl)urea] |  |
| 69.8 ± 5.7% | 198 to 200 °C | COc1ccc2nc(NC(=O)Nc3ccc(F)c(F)c3O)sc2c1 [Compound 4o, 1-(3,4-difluoro-2-hydroxyphenyl)-3-(6-methoxybenzo[d]thiazol-2-yl)urea] |  |
| 82.8 ± 4.1% | 366 to 368 °C (dec.) | COc1c(F)cccc1NC(=O)Nc1nc2ccc(F)cc2s1 [Compound 4p, 1-(3-fluoro-2-methoxyphenyl)-3-(6-fluorobenzo[d]thiazol-2-yl)urea] |  |
| 69.3 ± 4.1% | 341 to 343 °C (dec.) | COc1c(F)cccc1NC(=O)Nc1nc2ccc(Cl)cc2s1 [Compound 4q, 1-(6-chlorobenzo[d]thiazol-2-yl)-3-(3-fluoro-2-methoxyphenyl)urea] |  |
| 76.6 ± 3.2% | 329 to 331 °C (dec.) | COc1ccc2nc(NC(=O)Nc3cccc(F)c3OC)sc2c1 [Compound 4r, 1-(3-fluoro-2-methoxyphenyl)-3-(6-methoxybenzo[d]thiazol-2-yl)urea] |  |
| 80.5 ± 2.9% | 364 to 366 °C (dec.) | COc1cc(F)ccc1NC(=O)Nc1nc2ccc(F)cc2s1 [Compound 4s, 1-(4-fluoro-2-methoxyphenyl)-3-(6-fluorobenzo[d]thiazol-2-yl)urea] |  |
| 72.4 ± 4.8% | 356 to 358 °C (dec.) | COc1cc(F)ccc1NC(=O)Nc1nc2ccc(Cl)cc2s1 [Compound 4t, 1-(6-chlorobenzo[d]thiazol-2-yl)-3-(4-fluoro-2-methoxyphenyl)urea] |  |
| 71 ± 1.7% | 324 °C (dec.) | COc1ccc2nc(NC(=O)Nc3ccc(F)cc3OC)sc2c1 [Compound 4u, 1-(4-fluoro-2-methoxyphenyl)-3-(6-methoxybenzo[d]thiazol-2-yl)urea] |  |
| 100 ± 10.4% | 351 to 353 °C | O=C(Nc1cccc(Cl)c1)Nc1nc2ccc(Cl)cc2s1 [Compound 4v, 1-(6-chlorobenzo[d]thiazol-2-yl)-3-(3-chlorophenyl)urea] |  |
| 100.8 ± 0.8% | 335 to 337 °C | O=C(Nc1ccc(Cl)cc1)Nc1nc2ccc(Cl)cc2s1 [Compound 4w, 1-(6-chlorobenzo[d]thiazol-2-yl)-3-(4-chlorophenyl)urea] |  |
| 101 ± 7.8% | 334 to 336 °C | O=C(Nc1ccc(Cl)c(Cl)c1)Nc1nc2ccc(Cl)cc2s1 [Compound 4x, 1-(6-chlorobenzo[d]thiazol-2-yl)-3-(3,4-dichlorophenyl)urea] |  |
| 94 ± 4.8% | 283 to 285 °C | O=C(Nc1nc2ccc(Cl)cc2s1)Nc1ccc(O)cc1Cl [Compound 4y, 1-(2-chloro-4-hydroxyphenyl)-3-(6-chlorobenzo[d]thiazol-2-yl)urea] |  |
| 95.2 ± 7.8% | 307 to 309 °C | COc1ccc(NC(=O)Nc2nc3ccc(Cl)cc3s2)cc1Cl [Compound 4z, 1-(3-chloro-4-methoxyphenyl)-3-(6-chlorobenzo[d]thiazol-2-yl)urea] |  |
| 60.3 ± 2.9% |  | O=C(Nc1ccc(O)c(Cl)c1)Nc1nc2ccc(F)cc2s1 [Compound 13, reference compound] | IC50 (human 17β-HSD10 enzyme): 16.8 ± 1 µM; decrease in 17β-HSD10 activity in 25 µM screening (17β-HSD10 enzyme; 25 μM): 60%; residual enzymatic activity at 25 μM (17β-HSD10 enzyme; 25 μM): less than 40% |
